US6768044B1, “Chimeric hydroxyl-phenyl pyruvate dioxygenase, DNA sequence and method for obtaining plants containing such a gene, with herbicide tolerance” (priority 2000, dated 2004)

What was measured:
[1] = test system: Pseudomonas fluorescens A32 HPPD; type: cell-based; conditions: E. coli culture containing vector pRP C; for end concentration giving identical results (total absence of staining): compound in DMSO solution
Description: pRP C: The vector pRP A (which is described in the application WO 96/38567), which contains a genomic DNA fragment and the encoding region of the Pseudomonas fluorescens A32 HPPD gene, was digested with NcoI, purified and then ligated into the expression vector pKK233-2 (Clontech) which itself had been digested with NcoI, the only cloning site of this vector. The orientation of the gene in the resulting vector pRP C, which allows expression under-the control of the trc promoter, was checked.
(§1) A YT-broth-type culture medium with 1% agarose (Gibco BRL ultra pure) and 5 mM L-tyrosine (Sigma), which contains the selection agent for the above vector pRP C is poured into 96-well plates at 100 μl per well. 10 μl of an E. coli culture in the exponential growth phase which contains the vector pRP C is applied to each well.
A series was established with identical culture medium containing different concentrations (0 mM to 14 mM) of 2-cyano-3-cyclopropyl-l-(2-methylsulphonyl-4-trifluoromethylphenyl)-propane-i,3-dione (EP 0 496 631) which was solubilized in water and brought to pH 7.5. This molecule is a diketonitrile, known as an efficient inhibitor of HPPD activity (Pallett, K. E. et al. 1997. Pestic. Sci. 50, 83-84).
The end concentrations of the two molecules in DMSO solution are 3.5 mM and 7 mM, respectively.

[2] = test system: HPPD activity; experiment: In vivo activity of chimeric HPPDs (brown staining of isolated colonies); type: cell-based, E. coli; conditions: scale from 1 to 10, 10 being the most intense, reflects HPPD activity
Experimental: as §1
The brown staining was scored on a scale from 1 to 10, 10 being the most intense (as described in Example 1), by comparison with HPPDs derived from Arabidopsis thaliana (FAA) and Daucus carota (FCC).

| Molecule | end concentration giving identical results (total absence of staining) [1] [mM] | other results |
| --- | --- | --- |
| CSc1ccc(C(=O)C(C#N)C(=O)C2CC2)c(S(C)(=O)=O)c1 (stereo not shown) [2-cyano-3-cyclopropyl-1-(2-methylsulphonyl-4-(methylthio)phenyl)-propane-1,3-dione] | 3.5 |  |
| CS(=O)(=O)c1cc(C(F)(F)F)ccc1C(=O)C(C#N)C(=O)C1CC1 (stereo not drawn) [2-cyano-3-cyclopropyl-l-(2-methylsulphonyl-4-trifluoromethylphenyl)-propane-i,3-dione] |  | concentration at which a total absence of staining is observed ([1]; YT broth, 1% agarose, 5 mM L-tyrosine, 16 hours at 37° C., compound solubilized in water, pH 7.5, series 0 mM to 14 mM): 7 mM |
| CCOc1c(S(=O)(=O)CC)ccc(C(=O)C2C(=O)CC(C)CC2=O)c1Cl (stereo not shown) [2-(2-chloro-3-ethoxy-4-(ethyl-sulphonyl)benzoyl)-5-methyl-1,3-cyclohexadione] | 7 |  |
| FAA: HPPD derived from Arabidopsis thaliana, used for comparison (protein, UniProt P93836 1-445, looked up) 4-hydroxyphenylpyruvate …: MGHQNAAVSENQNHDDGAASSPGFKLVGFSKFVRKNPKSDKFKVKRFHHIEFWCGDATNVARRFSWGLGMRFSAKSDLSTGNMVHASYLLTSGDLRFLFTAPYSPSLSAGEIKPTTTASIPSFDHGSCRSFFSSHGLGVRAVAIEVEDAESAFSISVANGAIPSSPPIVLNEAVTIAEVKLYGDVVLRYVSYKAEDTEKSEFLPGFERVEDASSFPLDYGIRRLDHAVGNVPELGPALTYVAGFTGFHQFAEFTADDVGTAESGLNSAVLASNDEMVLLPINEPVHGTKRKSQIQTYLEHNEGAGLQHLALMSEDIFRTLREMRKRSSIGGFDFMPSPPPTYYQNLKKRVGDVLSDDQIKECEELGILVDRDDQGTLLQIFTKPLGDRPTIFIEIIQRVGCMMKDEEGKAYQSGGCGGFGKGNFSELFKSIEEYEKTLEAKQLVG |  | brown staining score [2]: 10 |
